{"source": "paper PMC10861593", "about": "“Kisspeptin-10 binding to Gpr54 in osteoclasts prevents bone loss by activating Dusp18-mediated dephosphorylation of Src” (Nature Communications, 2024)", "key": {"[1]": {"tested_on": "Gpr54, Src and Dusp18 co-localization", "test": "IF staining / TIRF microscopy co-localization in pre-osteoclasts", "format": "cell-based, mouse", "settings": "10 nM Kp-10 20 min", "protocol": "For endogenous IF staining, BMMs were seeded on confocal dishes and induced by 50 ng/ml RANKL and 10 ng/ml M-CSF for 2 days, and subsequently incubated with or without Kp-10 for 20 min. Cells were fixed in 10% TCA and incubated with anti-Gpr54 (Cell Signaling Technologies, 13776, 1:100), anti-Dusp18 (Santa Cruz., sc-376923, 1:100), or anti-Src (Cell Signaling Technologies, 2110, 1:400) or anti-Src (Cell Signaling Technologies, 2109, 1:400) overnight. IF staining of membrane colocation of Gpr54 with Src or Dusp18, and Src with Dusp18 were detected by Alexa Fluor™ 594 Tyramide SuperBoost™ Kit (Invitrogen, B40925) and Alexa Fluor™ 488 Tyramide SuperBoost™ Kit (Invitrogen, B40912) according to manufacturer’s instructions. The images were obtained by total internal reflection fluorescence (TIRF) microscopy (Ti2-E + H-TIRF, Nikon)."}, "[2]": {"tested_on": "phosphatases co-immunoprecipitated with Gpr54", "test": "mass spectrometry of anti-Gpr54 IP", "format": "cell-based, mouse", "settings": "RAW264.7 cells, Kp-10 20 min", "protocol": "For mass spectrometry (MS) analysis, anti-Gpr54 IP was performed with the whole-cell lysates derived from two 10-cm dishes of RAW264.7 cells with or without Kp-10 treatment for 20 min. The protein complexes after Co-IP were extensively washed with PBS, followed by on-bead digestion. Mass spectra were acquired on a Q-Exactive mass spectrometer (Thermo Scientific, Bremen, Germany). The raw mass spectrometry data were searched against the mouse IPI databases (version 3.86, released on June 28, 2012) using the Proteome Discoverer software suite (Thermo Scientific, San Jose, USA) utilizing a label-free quantification feature. The mass spectrometry proteomics data have been deposited to the ProteomeXchange Consortium via the PRIDE[52] partner repository with the dataset identifier PXD038433."}, "OVX mice": {"tested_on": "OVX mice", "test": "OVX-induced bone loss model (and sham-operated mice)", "format": "in vivo, mouse", "settings": "in vivo, OVX-induced bone loss model", "description": "Fig. 7 Kp-10 ameliorated OVX-induced bone loss. a, c Representative micro-CT images of femoral trabecular bone (a) and cortical bone (c). Female C57 mice treated with vehicle (Sham) or 50 nmol/kg (DSS)*6-Kp-10, ovariectomized mice (OVX) treated with vehicle or 50nmol/kg (DSS)*6-Kp-10 twice one week by intraperitoneal injection (n = 6 per group). Scale bar, 500 µm. b, d Parameter analysis of femurs from the mice above. BMD bone mineral density, BV/TV bone volume as a fraction of total bone volume, Tb.Th trabecular thickness, Tb.N trabecular number, Tb.Sp trabecular separation. e Representative TRAP staining images of femurs from Fig. 7a. f Histomorphometry analysis of the femurs from Fig. 7a. Oc.S/BS osteoclast surface per bone surface, N.Oc/B.Pm osteoclast bone surface density, ES/BS eroded surface per bone surface. Data represent means ± SEM. P values were determined by one-way ANOVA analysis (b, d, f). Representative results were obtained from at least three independent experiments. Source data are provided as a Source Data file.\n3D micro-CT analyses were performed as previously described. We scanned the femur using in vitro X-ray microtomography (Skyscan 1272, Bruker micro CT) at a pixel size of 9 µm, and analyzed the results according to the manufacturer’s instructions. Region-of-interest (ROI) was defined from 10 to 110 image slices, where the growth plate slice was defined as 0 mm. The contrast was defined from 68–255; 3D analysis, BMD, and 3D models were analyzed using CTAn software (Bruker micro CT). 3D models were adjusted in CT Vox software (Bruker micro CT).\nBone tissue was removed of excess tissues and fixed with 4% formalin, decalcified with 0.5 M EDTA for 10–14 days, embedded with paraffin, sectioned, and stained using the TRAP staining kit (Sigma-Aldrich, 387A-1KT). The third lumbar spine vertebrae (L3) were fixed with 4% formalin, sectioned, and subjected to Von Kossa staining as described previously[60],[61]. For double calcian labeling assay, 4−5 week-old mice were administrated calcian (30 μg/mL) through intraperitoneal injection for the first time and the second time after 10 days. The third lumbar spine vertebrae (L3) were fixed with 4% formalin, sectioned, and subjected to Goldner’s Masson trichrome staining, or acquisition of fluorescence images. Histomorphometric measurements were made using the OsteoMeasure Analysis System (Osteometrics, Atlanta, GA, USA) according to standard criteria.\nFor animal studies in vivo, mice were randomized for weight. For the OVX-induced bone loss model, 2-month-old female C57BL/6 mice were sham-operated (sham) or ovariectomized (OVX) and randomly divided into indicated groups. Vehicle, Kp-10 or (DSS)*6-Kp-10 was injected into the tail vein twice per week. After two months of treatment, the femurs and the L3 lumbrae were isolated for micro-CT or histomorphometric analysis. 3D micro-CT analyses were performed according to a standard protocol. BMD and bone volume were analyzed by CT-analysis software (CTAn, Bruker micro CT, Kontich, Belgium) and images were reconstituted by CT-volume software (CTvol, skyscan, CTAn, Bruker micro CT, Kontich, Belgium).\nSupplementary Fig. 16 a Representative image of Von Kossa staining of sham-operated female C57 mice treated with vehicle (Sham, n=4), ovariectomized mice (OVX, n=3), and OVX mice treatment with 1 nmol/kg Kp-10 (n=6),10 nmol/kg Kp-10 (n=6),1 nmol/kg (DSS)*6-Kp-10 (n=5) or 10 nmol/kg (DSS)*6-Kp-10 (n=6) twice one week by intraperitoneal injection for two months. […]"}, "[3]": {"tested_on": "osteoblast differentiation", "settings": "in vitro, KP-10 5 and 50 μM; ref 46 (Son et al.); cited from earlier work", "description": "Typically, GPCR activation with increasing of ligand concentration generates different signalings and phenotypes. […] Furthermore, we foun ..."}}, "data": [{"substance": "Kisspeptin-10 [Kp-10]", "values": [{"measurement": "co-localization of Dusp18 with Gpr54 in the plasma membrane", "setting": "[1]", "result": "colocalized with Gpr54 in the plasma membrane especially after treatment of Kp-10"}, {"measurement": "co-localization of Dusp18 with Src in the plasma membrane", "setting": "[1]", "result": "colocalized with Src in the plasma membrane especially after treatment with Kp-10"}, {"measurement": "co-localization of Src with Gpr54 on the membrane", "setting": "[1]", "result": "co-localized on the membrane with Gpr54 especially after Kp-10 stimulation"}, {"measurement": "phosphatases increasing after Kp-10 stimulation", "setting": "[2]", "result": "three increasing phosphatases including DUSP18, PTPN6 and PPP1CA were identified"}, {"measurement": "bone loss / bone protection in vivo (summary statement)", "setting": "OVX mice", "result": "abrogated bone loss by suppressing osteoclast activity in vivo"}, {"measurement": "osteoblast differentiation at 5 and 50 μM", "setting": "[3]", "result": "stimulated osteoblast differentiation in vitro"}]}]}
